Literature values, collected in patent US20030219468A1 (priority 2002, published 2003).

How the values were obtained:
Plasmodium berghei = details: mice, toward Plasmodium berghei
[1] = cold water
[2] = sorbic acid and its salts

In the case of Curdlan, the immunizing activity (Plasmodium berghei) is listed as “immunizing activity”.

In the case of `C/C=C/C=C/C(=O)O` [Sorbic acid, trans,trans-2,4-hexadienoic acid], the solubility [1] is listed as “only slightly soluble” and the microbiostatic antimycotic activity [2] is listed as “very high microbiostatic antimycotic activity”.
